Source: patent publication US8921546B2, “Imidazolothiazole compounds for the treatment of disease” (Ambit Biosciences Corporation, priority 2006, dated 2014)
Where a name gives a salt, the structure may show the parent alone. Read-outs that look alike come from different tables or passages of the source.

Experiments:
[1] = system: MV4-11 cells; experiment: Cellular proliferation assay (MTS), MV4-11; type: cell-based; conditions: Homo sapiens
In short: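 FLT3-ITD MV4-11 cells, 10,000/well in DMEM with 0.5% serum, exposed to compounds 3 days at 37 °C, 5% CO2. Viability read colorimetrically after 2 h MTS tetrazolium reduction; WT-FLT3 RS4-11 cells (20,000/well, RPMI 0.5% serum, 2 days) serve as control.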

[2] = biological target: T1, FLT3 (Homo sapiens, UniProt P36888); experiment: Binding constant (Kd) measurement, phage-displayed kinase competition binding assay, FLT3
T1 construct: made in house
T1 sequence (P36888 27-993): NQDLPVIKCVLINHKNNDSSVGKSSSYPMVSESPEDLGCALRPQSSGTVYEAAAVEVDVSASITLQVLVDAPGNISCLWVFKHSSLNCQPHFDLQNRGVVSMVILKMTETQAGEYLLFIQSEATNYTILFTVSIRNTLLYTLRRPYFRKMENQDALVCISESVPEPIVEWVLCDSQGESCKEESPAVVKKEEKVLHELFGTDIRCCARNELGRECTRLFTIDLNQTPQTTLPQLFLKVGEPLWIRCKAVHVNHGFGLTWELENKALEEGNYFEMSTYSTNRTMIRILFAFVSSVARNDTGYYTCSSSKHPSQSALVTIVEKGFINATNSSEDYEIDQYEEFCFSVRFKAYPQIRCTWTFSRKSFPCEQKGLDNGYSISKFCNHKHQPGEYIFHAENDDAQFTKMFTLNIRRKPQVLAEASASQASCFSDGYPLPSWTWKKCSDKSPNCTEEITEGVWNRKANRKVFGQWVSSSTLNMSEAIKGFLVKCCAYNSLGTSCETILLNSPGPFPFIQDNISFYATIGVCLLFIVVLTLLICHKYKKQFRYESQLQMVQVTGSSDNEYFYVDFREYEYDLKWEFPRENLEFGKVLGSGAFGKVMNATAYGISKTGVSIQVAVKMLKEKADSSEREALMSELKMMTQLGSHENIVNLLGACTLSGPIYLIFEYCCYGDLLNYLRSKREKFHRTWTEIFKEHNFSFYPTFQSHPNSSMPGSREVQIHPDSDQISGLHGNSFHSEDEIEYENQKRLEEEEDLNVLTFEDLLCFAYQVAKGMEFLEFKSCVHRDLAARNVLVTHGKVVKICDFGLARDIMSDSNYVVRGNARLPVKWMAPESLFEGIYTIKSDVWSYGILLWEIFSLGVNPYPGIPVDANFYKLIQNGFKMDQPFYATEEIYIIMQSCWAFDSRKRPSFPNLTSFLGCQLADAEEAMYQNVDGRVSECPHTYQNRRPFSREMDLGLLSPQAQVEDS
In short: (§1)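 Competition binding used human kinases fused to T7 phage and immobilized ATP-site ligands. Compound binding blocks kinase capture on the solid support. Bound phage-kinase was quantified by plaque assay or qPCR of the phage genome to give Kd.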

[3] = biological target: T2, CSF1R (Homo sapiens, UniProt P07333); experiment: Binding constant (Kd) measurement, phage-displayed kinase competition binding assay, CSF1R
T2 construct: made in house
In short: as §1

[4] = biological target: T3, KIT (Homo sapiens, UniProt P10721); experiment: Binding constant (Kd) measurement, phage-displayed kinase competition binding assay, KIT
T3 construct: made in house
In short: as §1

[5] = MV4-11 cells, 72 hour incubation, MTS, read-out: Cellular Assay MV-proliferation IC50
[6] = read-out: Binding Assay FLT3 Kd

T2 sequence (P07333 20-972): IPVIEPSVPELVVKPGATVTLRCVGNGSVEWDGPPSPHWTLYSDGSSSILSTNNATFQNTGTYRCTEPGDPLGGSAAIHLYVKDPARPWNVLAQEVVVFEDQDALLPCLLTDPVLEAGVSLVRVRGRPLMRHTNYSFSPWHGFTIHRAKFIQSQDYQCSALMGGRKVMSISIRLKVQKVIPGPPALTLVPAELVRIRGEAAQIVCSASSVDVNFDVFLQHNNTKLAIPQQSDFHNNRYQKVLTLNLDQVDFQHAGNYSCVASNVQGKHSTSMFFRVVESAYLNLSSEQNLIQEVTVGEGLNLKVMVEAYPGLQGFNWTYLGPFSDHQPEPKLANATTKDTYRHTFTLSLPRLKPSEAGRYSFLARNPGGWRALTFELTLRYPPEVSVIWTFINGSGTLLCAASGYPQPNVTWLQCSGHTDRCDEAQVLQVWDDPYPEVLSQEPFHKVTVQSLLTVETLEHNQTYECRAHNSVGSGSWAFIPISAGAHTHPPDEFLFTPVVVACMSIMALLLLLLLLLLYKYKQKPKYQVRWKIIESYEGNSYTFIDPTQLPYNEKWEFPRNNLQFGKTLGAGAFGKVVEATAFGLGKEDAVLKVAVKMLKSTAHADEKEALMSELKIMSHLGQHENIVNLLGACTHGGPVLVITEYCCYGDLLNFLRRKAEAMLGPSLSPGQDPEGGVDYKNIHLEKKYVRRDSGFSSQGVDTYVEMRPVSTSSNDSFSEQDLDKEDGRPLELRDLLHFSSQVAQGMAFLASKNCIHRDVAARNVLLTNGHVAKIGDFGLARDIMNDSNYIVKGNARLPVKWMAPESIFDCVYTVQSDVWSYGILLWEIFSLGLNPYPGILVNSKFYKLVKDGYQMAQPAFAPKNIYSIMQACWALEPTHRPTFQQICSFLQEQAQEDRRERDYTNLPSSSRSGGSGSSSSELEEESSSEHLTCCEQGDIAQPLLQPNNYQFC
T3 sequence (P10721 26-976): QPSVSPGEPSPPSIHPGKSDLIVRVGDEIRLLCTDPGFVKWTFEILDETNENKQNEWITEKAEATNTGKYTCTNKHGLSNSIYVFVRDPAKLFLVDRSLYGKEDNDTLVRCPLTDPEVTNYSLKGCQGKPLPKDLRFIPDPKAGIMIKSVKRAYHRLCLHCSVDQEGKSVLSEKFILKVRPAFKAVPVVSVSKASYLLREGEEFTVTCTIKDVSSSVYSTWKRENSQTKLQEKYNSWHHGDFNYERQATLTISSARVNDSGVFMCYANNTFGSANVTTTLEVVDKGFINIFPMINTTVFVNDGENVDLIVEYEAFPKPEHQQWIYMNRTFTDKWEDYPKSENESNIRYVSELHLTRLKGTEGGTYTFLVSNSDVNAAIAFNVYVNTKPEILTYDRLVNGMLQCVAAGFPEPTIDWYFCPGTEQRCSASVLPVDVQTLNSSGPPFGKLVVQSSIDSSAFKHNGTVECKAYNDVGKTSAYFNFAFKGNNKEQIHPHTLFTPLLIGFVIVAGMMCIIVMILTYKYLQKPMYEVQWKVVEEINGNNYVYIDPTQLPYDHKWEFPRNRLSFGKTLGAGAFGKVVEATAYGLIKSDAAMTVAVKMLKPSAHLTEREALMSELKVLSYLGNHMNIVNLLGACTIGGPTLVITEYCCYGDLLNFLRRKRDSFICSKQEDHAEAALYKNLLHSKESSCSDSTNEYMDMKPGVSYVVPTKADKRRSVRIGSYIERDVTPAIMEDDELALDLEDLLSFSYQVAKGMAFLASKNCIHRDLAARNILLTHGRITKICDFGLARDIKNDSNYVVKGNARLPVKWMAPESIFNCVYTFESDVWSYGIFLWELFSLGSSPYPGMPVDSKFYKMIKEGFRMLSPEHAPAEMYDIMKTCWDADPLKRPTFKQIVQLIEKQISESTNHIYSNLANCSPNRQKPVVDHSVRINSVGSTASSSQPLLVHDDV

SMILES	IC50 [1, 5] [nM]	Kd [2] [nM]	Kd [3] [nM]	Kd [4] [nM]	Kd [2, 6] [nM]	IC50 ([1]; MV4-11, 72 h, read-out: Cellular Assay MV-proliferation IC50 (nM)) [nM]
CC(C)[C@@H](N)C(=O)Oc1ccc2c(c1)sc1nc(-c3ccc(NC(=O)Nc4cc(C(C)(C)C)on4)cc3)cn12 [Compound B5, (2R)-2-amino-3-methyl-butyric acid 2-{4-[3-(5-tert-butyl-isoxazol-3-yl)-ureido]-phenyl}-benzo[d]imidazo[2,1-b]thiazol-7-yl ester]	< 10	< 10	10 to 100	10 to 100		
Cc1nc(-c2ccc(Cl)cc2)sc1C(=O)Nc1ccc(-c2cn3c(n2)sc2cc(OCCN4CCOCC4)ccc23)cc1 [Compound E4, 2-(4-chloro-phenyl)-4-methyl-thiazole-5-carboxylic acid {4-[7-(2-morpholin-4-yl-ethoxy)-benzo[d]imidazo[2,1-b]thiazol-2-yl]-phenyl}-amide]	10 to 100		100 to 1000	100 to 1000	10 to 100	
O=C(CCc1ccc2c(c1)sc1nc(-c3ccc(NC(=O)N4CCOCC4)cc3)cn12)N1CCOCC1 [Compound E1, Morpholine-4-carboxylic acid {4-[7-(3-morpholin-4-yl-3-oxo-propyl)-benzo[d]imidazo[21-b]thiazol-2-yl]-phenyl}amide]	> 100		> 1000	> 1000	100 to 1000	
CC(C)(C)c1cc(NC(=O)Nc2ccc(-c3cn4c(n3)sc3cccc(OCCN5CCOCC5)c34)cc2)no1 [Compound B11, N-(5-tert-butyl-isoxazol-3-yl)-N′-{4-[5-(2-morpholin-4-yl-ethoxy)imidazo[2,1-b][1,3]benzothiazol-2-yl]phenyl}urea hydrochloride]	< 10		100 to 1000	10 to 100	< 10	
O=C(Nc1ccc(-c2cn3c(n2)sc2cc(OCCN4CCOCC4)ccc23)cc1)Nc1ccc2c(c1)OCCO2 [Compound F1, 1-(2,3-Dihydro-benzo[1,4]dioxin-6-yl)-3-{4-[7-(2-morpholin-4-yl-ethoxy)-benzo[d]imidazo[2,1-b]thiazol-2-yl]-phenyl}-urea]	< 10		100 to 1000	< 10	< 10	
CCN1CCN(C(=O)c2ccc3c(c2)sc2nc(-c4ccc(NC(=O)Nc5cc(C(C)(C)C)on5)cc4)cn23)CC1 [Compound C23, 1-(5-tert-butyl-isoxazol-3-yl)-3-{4-[7-(4-ethyl-piperazine-1-carbonyl)-imidazo[2,1-b][1,3]benzothiazol-2-yl]-phenyl}-urea hydrochloride]			10 to 100	< 10	< 10	< 10
CC(C)(C)c1cc(NC(=O)Nc2ccc(-c3cn4c(n3)sc3cc(C(=O)N5CCNCC5)ccc34)cc2)no1 [Compound C24, 1-(5-tert-butyl-isoxazol-3-yl)-3-{4-[7-(piperazine-1-carbonyl)-imidazo[2,1-b][1,3]benzothiazol-2-yl]-phenyl}-urea hydrochloride]	< 10	< 10	10 to 100	< 10		
CC(C)(C)c1cc(NC(=O)Nc2ccc(-c3cn4c(n3)sc3cc(OCCCN5CCSCC5)ccc34)cc2)no1 [Compound B8, 1-(5-tert-Butyl-isoxazol-3-yl)-3-{4-[7-(3-thiomorpholin-4-yl-propoxy)-benzo[d]imidazo[2,1-b]thiazol-2-yl]-phenyl}-urea]	10 to 100	< 10	10 to 100	10 to 100		
CCN1CCN(CCc2ccc3c(c2)sc2nc(-c4ccc(NC(=O)Nc5cc(C(C)(C)C)on5)cc4)cn23)CC1 [Compound D7, 1-(5-tert-Butyl-isoxazol-3-yl)-3-(4-{7-[2-(4-ethyl-piperazin-1-yl)-ethyl]-imidazo[2,1-b][1,3]benzothiazol-2-yl}-phenyl)-urea hydrochloride]	< 10	< 10	< 10	< 10		
CC(C)(C)c1cc(NC(=O)Nc2ccc(-c3cn4c(n3)sc3cc(CCC(=O)O)ccc34)cc2)no1 [Compound C4, 3-{2-[4-({[(5-tert-butylisoxazol-3-yl)amino]carbonyl}amino)phenyl]imidazo[2,1-b][1,3]benzothiazol-7-yl}propanoic acid]	< 10		10 to 100	< 10	< 10	
